Key:
Test in all cases: Post-emergent Test III, herbicidal activity in wheat and barley
Format in all cases: in vivo
[1] = system: HORSS: barley, including spring and winter (Hordeum vulgare); details: for GR20 HORSS: probit analysis
Method in brief: (§1)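 GR20, GR50, GR80 and GR90 come from probit analysis of visual injury scores (0 = none, 100 = complete kill) taken 21 d after treatment. Foliar application was by track sprayer delivering 187 L/ha at five rates, from high down to 1/16×, onto greenhouse plants at the 2–3 leaf stage, with solvent-blank controls.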

[2] = system: KCHSC: kochia (Kochia scoparia); details: for GR50 KCHSC: dose for 50 percent growth reduction; for GR50 KCHSC / GR80 KCHSC: probit analysis; for GR80 KCHSC: dose for 80 percent growth reduction
Method in brief: as §1

LAMSS = details: Table 8, 21 d
Method in brief: as §1

[3] = system: MATSS: scented mayweed (Matricaria chamomilla), pineappleweed (Matricaria matricarioides); details: for GR50 MATSS: dose for 50 percent growth reduction; for GR50 MATSS / GR80 MATSS: probit analysis; for GR80 MATSS: dose for 80 percent growth reduction
Method in brief: as §1

[4] = system: SASKR: Russian thistle (Salsola iberica); details: for GR50 SASKR: dose for 50 percent growth reduction; for GR50 SASKR / GR80 SASKR: probit analysis; for GR80 SASKR: dose for 80 percent growth reduction
Method in brief: as §1

[5] = system: TRZSS: wheat, including spring and winter (Triticum aestivum); details: for GR20 TRZSS: probit analysis
Method in brief: as §1

[6] = system: VERPE: bird's-eye speedwell (veronica persica); details: for GR50 VERPE: dose for 50 percent growth reduction; for GR50 VERPE / GR80 VERPE: probit analysis; for GR80 VERPE: dose for 80 percent growth reduction
Method in brief: as §1

[7] = system: VIOSS: wild pansy (Viola tricolor), field violet (Viola arvensis); details: for GR50 VIOSS: dose for 50 percent growth reduction; for GR50 VIOSS / GR80 VIOSS: probit analysis; for GR80 VIOSS: dose for 80 percent growth reduction
Method in brief: as §1

[8] = Table 8, dose for 20 percent growth reduction, 21 d
[9] = dose for 20 percent growth reduction (crop), 21 days after application

SMILES: COc1c(N)nc(-c2ccc(Br)c(F)c2)nc1C(=O)O [Compound 113, 6-Amino-2-(4-bromo-3-fluorophenyl)-5-methoxypyrimidine-4-carboxylic acid]
- pest or weed control at 35 g/ha ([1]; Hordeum vulgare, post-emergence, 504 h, Table 8, 35 g ai/ha, post-emergent, 21 d, read-out: Visual Growth Reduction (%) 21 Days After Application HORSS): 85 to 94%
- pest or weed control at 70 g/ha ([1]; Hordeum vulgare, post-emergence, 504 h, Table 8, 70 g ai/ha, post-emergent, 21 d, read-out: Visual Growth Reduction (%) 21 Days After Application HORSS): 95 to 100%
- GR20 HORSS [1, 8]: 1 g ai/ha
- pest or weed control at 35 g/ha ([2]; Bassia scoparia, post-emergence, 504 h, Table 8, 35 g ai/ha, post-emergent, 21 d, read-out: Visual Growth Reduction (%) 21 Days After Application KCHSC): 95 to 100%
- pest or weed control at 70 g/ha ([2]; Bassia scoparia, post-emergence, 504 h, Table 8, 70 g ai/ha, post-emergent, 21 d, read-out: Visual Growth Reduction (%) 21 Days After Application KCHSC): 95 to 100%
- GR50 KCHSC ([2]; Table 8, 21 d): 3 g ai/ha
- GR80 KCHSC ([2]; Table 8, 21 d): 10 g ai/ha
- GR50 LAMSS (LAMSS; dose for 50 percent growth reduction, probit analysis): 1 g ai/ha
- GR80 LAMSS (LAMSS; dose for 80 percent growth reduction, probit analysis): 4 g ai/ha
- pest or weed control at 35 g/ha (LAMSS; post-emergence, 504 h, 35 g ai/ha, post-emergent, read-out: Visual Growth Reduction (%) 21 Days After Application LAMSS): 95 to 100%
- pest or weed control at 70 g/ha (LAMSS; post-emergence, 504 h, 70 g ai/ha, post-emergent, read-out: Visual Growth Reduction (%) 21 Days After Application LAMSS): 95 to 100%
- pest or weed control at 35 g/ha ([3]; Matricaria chamomilla, post-emergence, 504 h, Table 8, 35 g ai/ha, post-emergent, 21 d, read-out: Visual Growth Reduction (%) 21 Days After Application MATSS): 85 to 94%
- pest or weed control at 70 g/ha ([3]; Matricaria chamomilla, post-emergence, 504 h, Table 8, 70 g ai/ha, post-emergent, 21 d, read-out: Visual Growth Reduction (%) 21 Days After Application MATSS): 95 to 100%
- GR50 MATSS ([3]; Table 8, 21 d): 4 g ai/ha
- GR80 MATSS ([3]; Table 8, 21 d): 15 g ai/ha
- pest or weed control at 35 g/ha ([4]; Salsola tragus, post-emergence, 504 h, Table 8, 35 g ai/ha, post-emergent, 21 d, read-out: Visual Growth Reduction (%) 21 Days After Application SASKR): 75 to 84%
- pest or weed control at 70 g/ha ([4]; Salsola tragus, post-emergence, 504 h, Table 8, 70 g ai/ha, post-emergent, 21 d, read-out: Visual Growth Reduction (%) 21 Days After Application SASKR): 85 to 94%
- GR50 SASKR ([4]; Table 8, 21 d): 5 g ai/ha
- GR80 SASKR ([4]; Table 8, 21 d): 36 g ai/ha
- GR20 TRZSS [5, 8]: 1 g ai/ha
- pest or weed control at 35 g/ha ([5]; Triticum aestivum, post-emergence, 504 h, Table 8, 35 g ai/ha, post-emergent, 21 d, read-out: Visual Growth Reduction (%) 21 Days After Application TRZSS): 85 to 94%
- pest or weed control at 70 g/ha ([5]; Triticum aestivum, post-emergence, 504 h, Table 8, 70 g ai/ha, post-emergent, 21 d, read-out: Visual Growth Reduction (%) 21 Days After Application TRZSS): 85 to 94%
- GR50 VERPE ([6]; Table 8, 21 d): 3 g ai/ha
- GR80 VERPE ([6]; Table 8, 21 d): 18 g ai/ha
- pest or weed control at 35 g/ha ([6]; Veronica persica, post-emergence, 504 h, Table 8, 35 g ai/ha, post-emergent, 21 d, read-out: Visual Growth Reduction (%) 21 Days After Application VERPE): 85 to 94%
- pest or weed control at 70 g/ha ([6]; Veronica persica, post-emergence, 504 h, Table 8, 70 g ai/ha, post-emergent, 21 d, read-out: Visual Growth Reduction (%) 21 Days After Application VERPE): 85 to 94%
- GR50 VIOSS ([7]; Table 8, 21 d): 4 g ai/ha
- GR80 VIOSS ([7]; Table 8, 21 d): 11 g ai/ha
- pest or weed control at 35 g/ha ([7]; Viola tricolor, post-emergence, 504 h, Table 8, 35 g ai/ha, post-emergent, 21 d, read-out: Visual Growth Reduction (%) 21 Days After Application VIOSS): 95 to 100%
- pest or weed control at 70 g/ha ([7]; Viola tricolor, post-emergence, 504 h, Table 8, 70 g ai/ha, post-emergent, 21 d, read-out: Visual Growth Reduction (%) 21 Days After Application VIOSS): 95 to 100%

SMILES: Nc1c(F)c(-c2ccc(I)cc2F)nc(C(=O)O)c1Cl [Compound 169]
- pest or weed control at 37.1 g/ha ([1]; Hordeum vulgare, post-emergence, 504 h, 37.1 g ai/ha, 21 days after application, read-out: Visual Gorowth Reduction (%) 21 days After Application HORSS): 95 to 100%
- pest or weed control at 74.3 g/ha ([1]; Hordeum vulgare, post-emergence, 504 h, 74.3 g ai/ha, 21 days after application, read-out: Visual Gorowth Reduction (%) 21 days After Application HORSS): 95 to 100%
- pest or weed control at 149 g/ha ([1]; Hordeum vulgare, post-emergence, 504 h, 149 g ai/ha, 21 days after application, read-out: Visual Gorowth Reduction (%) 21 days After Application HORSS): 95 to 100%
- GR20 HORSS [1, 9]: 1 g ai/ha
- pest or weed control at 37.1 g/ha ([2]; Bassia scoparia, post-emergence, 504 h, 37.1 g ai/ha, 21 days after application, read-out: Visual Gorowth Reduction (%) 21 days After Application KCHSC): 60 to 74%
- pest or weed control at 74.3 g/ha ([2]; Bassia scoparia, post-emergence, 504 h, 74.3 g ai/ha, 21 days after application, read-out: Visual Gorowth Reduction (%) 21 days After Application KCHSC): 85 to 94%
- pest or weed control at 149 g/ha ([2]; Bassia scoparia, post-emergence, 504 h, 149 g ai/ha, 21 days after application, read-out: Visual Gorowth Reduction (%) 21 days After Application KCHSC): 85 to 94%
- GR50 KCHSC ([2]; 21 days after application): 8 g ai/ha
- GR80 KCHSC ([2]; 21 days after application): 72 g ai/ha
- pest or weed control at 37.1 g/ha ([3]; Matricaria chamomilla, post-emergence, 504 h, 37.1 g ai/ha, 21 days after application, read-out: Visual Gorowth Reduction (%) 21 days After Application MATSS): 75 to 84%
- pest or weed control at 74.3 g/ha ([3]; Matricaria chamomilla, post-emergence, 504 h, 74.3 g ai/ha, 21 days after application, read-out: Visual Gorowth Reduction (%) 21 days After Application MATSS): 95 to 100%
- pest or weed control at 149 g/ha ([3]; Matricaria chamomilla, post-emergence, 504 h, 149 g ai/ha, 21 days after application, read-out: Visual Gorowth Reduction (%) 21 days After Application MATSS): 95 to 100%
- GR50 MATSS ([3]; 21 days after application): 15 g ai/ha
- GR80 MATSS ([3]; 21 days after application): 35 g ai/ha
- pest or weed control at 37.1 g/ha ([4]; Salsola tragus, post-emergence, 504 h, 37.1 g ai/ha, 21 days after application, read-out: Visual Gorowth Reduction (%) 21 days After Application SASKR): 60 to 74%
- pest or weed control at 74.3 g/ha ([4]; Salsola tragus, post-emergence, 504 h, 74.3 g ai/ha, 21 days after application, read-out: Visual Gorowth Reduction (%) 21 days After Application SASKR): 75 to 84%
- pest or weed control at 149 g/ha ([4]; Salsola tragus, post-emergence, 504 h, 149 g ai/ha, 21 days after application, read-out: Visual Gorowth Reduction (%) 21 days After Application SASKR): 85 to 94%
- GR50 SASKR ([4]; 21 days after application): 5 g ai/ha
- GR80 SASKR ([4]; 21 days after application): 83 g ai/ha
- pest or weed control at 37.1 g/ha ([5]; Triticum aestivum, post-emergence, 504 h, 37.1 g ai/ha, 21 days after application, read-out: Visual Gorowth Reduction (%) 21 days After Application TRZSS): 75 to 84%
- pest or weed control at 74.3 g/ha ([5]; Triticum aestivum, post-emergence, 504 h, 74.3 g ai/ha, 21 days after application, read-out: Visual Gorowth Reduction (%) 21 days After Application TRZSS): 85 to 94%
- pest or weed control at 149 g/ha ([5]; Triticum aestivum, post-emergence, 504 h, 149 g ai/ha, 21 days after application, read-out: Visual Gorowth Reduction (%) 21 days After Application TRZSS): 85 to 94%
- GR20 TRZSS [5, 9]: 1 g ai/ha
- pest or weed control at 37.1 g/ha ([6]; Veronica persica, post-emergence, 504 h, 37.1 g ai/ha, 21 days after application, read-out: Visual Gorowth Reduction (%) 21 days After Application VERPE): 85 to 94%
- pest or weed control at 74.3 g/ha ([6]; Veronica persica, post-emergence, 504 h, 74.3 g ai/ha, 21 days after application, read-out: Visual Gorowth Reduction (%) 21 days After Application VERPE): 95 to 100%
- pest or weed control at 149 g/ha ([6]; Veronica persica, post-emergence, 504 h, 149 g ai/ha, 21 days after application, read-out: Visual Gorowth Reduction (%) 21 days After Application VERPE): 95 to 100%
- GR50 VERPE ([6]; 21 days after application): 19 g ai/ha
- GR80 VERPE ([6]; 21 days after application): 37 g ai/ha
- pest or weed control at 37.1 g/ha ([7]; Viola tricolor, post-emergence, 504 h, 37.1 g ai/ha, 21 days after application, read-out: Visual Gorowth Reduction (%) 21 days After Application VIOSS): 75 to 84%
- pest or weed control at 74.3 g/ha ([7]; Viola tricolor, post-emergence, 504 h, 74.3 g ai/ha, 21 days after application, read-out: Visual Gorowth Reduction (%) 21 days After Application VIOSS): 95 to 100%
- pest or weed control at 149 g/ha ([7]; Viola tricolor, post-emergence, 504 h, 149 g ai/ha, 21 days after application, read-out: Visual Gorowth Reduction (%) 21 days After Application VIOSS): 95 to 100%
- GR50 VIOSS ([7]; 21 days after application): 21 g ai/ha
- GR80 VIOSS ([7]; 21 days after application): 36 g ai/ha

Reference: patent US9113629B2, “4-amino-6-(4-substituted-phenyl)-picolinates and 6-amino-2-(4-substituted-phenyl)-pyrimidine-4-carboxylates and their use as herbicides” (DOW AGROSCIENCES LLC, priority 2013, dated 2015)
